Experimental data as given in patent publication US20120165354A1, “TREATMENT METHOD” (GLAXO WELLCOME MANUFACTURING PTE LTD., priority 2009, published 2012).
Counter-ions that a name gives are not always drawn.

Experiments:
[1] = test system: subjects with occult or minimally classic subtypes of choroidal neovascularization due to AMD; test: Best-corrected visual acuity (BCVA, ETDRS/AREDS procedure) in AMD patients, 28-day eye-drop study; assay type: in vivo, human; conditions: for Change from Baseline in BCVA Day 29, Point Estimate: Overall
Experimental: (§1) Three dosing regimens of pazopanib monohydrochloride eye drops (5 mg/mL TID, 2 mg/mL TID, 5 mg/mL QD) were administered for 28 days to 70 subjects with occult or minimally classic subtypes of choroidal neovascularization due to AMD. This study was designed to measure pharmacological activity of topically administered pazopanib in target tissues (choroid and retina) of patients with AMD by weekly evaluation of central retinal lesion thickness as measured by optical coherence tomography (OCT). In addition, the ocular and systemic safety and systemic pharmacokinetics of pazopanib treatment for 28 days were evaluated. Evaluation of efficacy was performed on an exploratory basis by weekly measurement of visual acuity, performing best-corrected visual acuity assessments at screening and day 29.
(§2) Of the total of 70 subjects that were randomized, 28 had been previously treated with anti-angiogenic agents for treatment of macular degeneration and 42 were treatment-naïve. The protocol excluded subjects who had received any treatment for AMD within 60 days of the first dose of study medication in this trial. A total of 68 subjects completed all study assessments, of which 63 completed the assessments of Day 29 visit without receiving any rescue medication. 6 subjects received anti-VEGF rescue medication prior to the Day 29 assessment (1 of 27 in the 5 mg/ml TID arm, 2 of 27 in the 2 mg/ml TID, 3 of 16 subjects in the 5 mg QD arm, which was discontinued per protocol amendment due to feasibility.) Baseline characteristics in the study were similar between treatment groups, with the exception of age and lesion size, which were increased in the 2 mg/ml TID arm.
Sites were trained and certified for visual acuity assessment with the standard procedure developed for the Early Treatment Diabetic Retinopathy Study (ETDRS) and adapted for the Age Related Eye Disease Study (AREDS). Best-corrected visual acuity (BCVA) measurements were performed at screening and Day 29 visits and, at other visits, use of the previous refraction for the visual acuity (VA) assessment was allowed.

[2] = test system: subjects with occult or minimally classic subtypes of choroidal neovascularization due to AMD; test: Optical coherence tomography central retinal thickness (OCT CRT/CRLT) in AMD patients, 28-day eye-drop study; assay type: in vivo, human
Experimental: as §1, §2
Sites were certified by a central reading center to collect images to assess Central Retinal Thickness (CRT, subretinal fluid) and Central Retinal Lesion Thickness (CRLT, subretinal fluid and neovascular lesion) on a Stratus OCT 3 instrument weekly. Values were then determined by manual measurement at the reading center. As used herein, “OCT CRLT” means optical coherence tomography central retinal/lesion thickness as determined by manual measurement of the distance between the inner and outer retina, inclusive of subretinal fluid and any choroidal neovascularization (CNV) as measured in the central 1 mm area of the 7 mm posterior pole scan. As used herein, “OCT CRT” means optical coherence tomography central retinal thickness as determined by manual measurement of the distance between the inner and outer retina inclusive of any subretinal fluid as measured in the central 1 mm area of the 7 mm posterior pole scan.

Cc1ccc(Nc2nccc(N(C)c3ccc4c(C)n(C)nc4c3)n2)cc1S(N)(=O)=O [pazopanib monohydrochloride, 5-[[4-[(2,3-dimethyl-2H-indazol-6-yl)methylamino]-2-pyrimidinyl]amino]-2-methylbenzenesulfonamide monohydrochloride]
Change from Baseline BCVA at Day 29, BCVA LSMean (SE) ([1]; 2 mg/ml TID, CFH Y402H genotype CC, N=3): 0.85 (4.07) | Change from Baseline BCVA at Day 29, BCVA LSMean (SE) ([1]; 2 mg/ml TID, CFH Y402H genotype CT, N=10): −1.52 (2.24) | Change from Baseline BCVA at Day 29, BCVA LSMean (SE) ([1]; 2 mg/ml TID, CFH Y402H genotype TT, N=4): 5.43 (3.60) | change in visual acuity ([1]; 5 mg/ml TID group only, enhanced in previously treated group and those with a T allele): Statistically significant increases | Change from Baseline BCVA at Day 29, BCVA LSMean (SE) ([1]; 5 mg/ml TID, CFH Y402H genotype CC, N=7): 0.36 (2.68) | Change from Baseline BCVA at Day 29, BCVA LSMean (SE) ([1]; 5 mg/ml TID, CFH Y402H genotype CT, N=9): 4.09 (2.38) | Change from Baseline BCVA at Day 29, BCVA LSMean (SE) ([1]; 5 mg/ml TID, CFH Y402H genotype TT, N=5): 6.96 (3.18) | Change from Baseline in BCVA at Day 29, Point Estimate ([1]; Naïve Subjects, 2 mg/mL TID): 1.16 | Change from Baseline in BCVA at Day 29, Point Estimate ([1]; Naïve Subjects, 5 mg/mL TID): 3.38 | Change from Baseline in BCVA at Day 29, Point Estimate ([1]; Naïve Subjects, 5 mg/mL once daily): 0.80 | Change from Baseline in BCVA Day 29, Point Estimate ([1]; 2 mg/mL TID): 0.76 | Change from Baseline in BCVA Day 29, Point Estimate ([1]; 5 mg/mL QD): 0.09 | Change from Baseline in BCVA Day 29, Point Estimate ([1]; 5 mg/mL TID): 4.32 | Change from Baseline in BCVA at Day 29, Point Estimate ([1]; Previously Treated Subjects, 2 mg/mL TID): 0.18 | Change from Baseline in BCVA at Day 29, Point Estimate ([1]; Previously Treated Subjects, 5 mg/mL TID): 5.61 | Change from Baseline in BCVA at Day 29, Point Estimate ([1]; Previously Treated Subjects, 5 mg/mL once daily): −0.80 | Change from Baseline in Central Retinal Thickness at Day 29, CRT LSMean ([2]; 2 mg/ml TID eye drops, CFH genotype CC, N=3): 22.15 | Change from Baseline in Central Retinal Thickness at Day 29, CRT LSMean ([2]; 2 mg/ml TID eye drops, CFH genotype CT, N=10): −14.6 | Change from Baseline in Central Retinal Thickness at Day 29, CRT LSMean ([2]; 2 mg/ml TID eye drops, CFH genotype TT, N=4): −45.5 | Change from Baseline in Central Retinal Thickness at Day 29, CRT LSMean ([2]; 5 mg/ml TID eye drops, CFH genotype CC, N=7): 9.23 | Change from Baseline in Central Retinal Thickness at Day 29, CRT LSMean ([2]; 5 mg/ml TID eye drops, CFH genotype CT, N=9): 21.51 | Change from Baseline in Central Retinal Thickness at Day 29, CRT LSMean ([2]; 5 mg/ml TID eye drops, CFH genotype TT, N=5): −88.8 | mean decrease in CRT ([2]; day 29, subjects with the CFH TT genotype, 5 mg/ml TID, statistically significant): 89 micron | changes from baseline in OCT CRT / CRLT ([2]; overall population): no statistically significant changes from baseline
